Values quoted from earlier work, collected in US20140228218A1, “PARAFFINIC OIL AND CLASS B GIBBERELLIN BIOSYNTHESIS INHIBITOR COMPOSITIONS” (SUNCOR ENERGY INC., priority 2011, published 2014).

System: the plant being treated
Conditions: in vivo

For `CC(C)(C)[C@@H](O)[C@@H](Cc1ccc(Cl)cc1)n1cncn1` (relative stereo) [paclobutrazol, (±)-(R*,R*)-beta-[(4-chlorophenyl)methyl]-alpha-(1,1-dimethylethyl)-1H-1,2,4-triazole-1-ethanol], the “phytotoxicity to the plant being treated (in words)” value is listed as “can cause phytoxicity”.
